Experimental data reported in patent US12285034B2, “Human and non-human animal use of microbial anaplerotic oil” (HELIAE DEVELOPMENT, LLC, priority 2017, dated 2025).
Where two headings read alike, the source gives them in different places.

Tested on: Yarrowia lipolytica ATCC18944
Assay type: cell-based
Details: for Total Fatty Acids / Total Lipids: 168 h
Description: Culture conditions. In one implementation, Yarrowia lipolytica ATCC18944 can be cultivated in triplicates (n=3) in a medium containing (g/L): glycerol (80), monosodium […]), yeast extract (1), NaCl (12.5), MgSO4 (7), H2O (2.5), KCl (0.5), CaCl2 (0.1), KH2PO4 (0.5), trace metal solution (5 mL) and vitamin solution (1 mL). The trace element solution may contain (g/L): […] The vitamin solution can be filter-sterilized (e.g., using 0.2 μm pore size filter) containing (mg L-1): thiamine (100), biotin (0.5) and cyanocobalamin (0.5) unless otherwise stated. In some implementations cyanocobalamin might be added to or subtracted from the medium formulation to change or impact propionic acid deposition in OCFA. […] In one implementation, a concentration of the cyanocobalamin and/or cobalt in the culture medium can be below 0.4 μM. […] The flasks can be incubated in the dark in an orbital shaker at 180 rpm, 27° C. In this implementation, sodium propionate is fed batch every day according to respective treatments. […] Analyses. Cell dry weights can be obtained by drying samples that are previously vacuum filtrated (e.g., using 0.2 μm pore size filters). Residual propionate is analyzed directly by high performance liquid chromatography (HPLC). Lipids and total fatty acids are analyzed using a direct extraction, transesterification followed by gas chromatography (GC) and detection by flame ionization (FID). The different fatty acids are identified and quantified using appropriate internal and external standards. Propionic acid deposition rate.

[1] = daily propionate 0+0+1+1+1+1 g/L
[2] = daily propionate 0+0+2+2+2+2 g/L
[3] = 192 h, itaconic acid 0 / propionate 6 g/L

SMILES: CCC(=O)O [Propionate, propionic acid]
- daily propionic feed not affecting growth: up to 2 g/L d
- Total Fatty Acids [1]: 17.3 ± 1.6 % DW
- Total Lipids [1]: 19.0 ± 0.0 % DW
- Total Fatty Acids [2]: 16.2 ± 0.5 % DW
- Total Lipids [2]: 18.3 ± 0.6 % DW
- Total Fatty Acids (daily propionate 0 + 0.6 g/L): 21.3 ± 2.8 % DW
- Total Lipids (daily propionate 0 + 0.6 g/L): 21.7 ± 3.2 % DW
- Total Fatty Acids (daily propionate 0.3 + 0.3 g/L): 21.7 ± 2.5 % DW
- Total Lipids (daily propionate 0.3 + 0.3 g/L): 23.7 ± 3.5 % DW
- Cell dry weight [3]: 8.3 ± 1.2 g/L
- Consumed propionate [3]: 5.1 ± 1.5 g/L
- Odd chain fatty acids [3]: 1.3 ± 0.5 % DW
- Propionic acid deposition [3]: 0.6 ± 0.1%
- growth on propionate as sole carbon source (FIG. 25): able to grow
- Consumed propionate (cyanocobalamin 0 μM): 2.6 g/L
- Propionate deposition (cyanocobalamin 0 μM): 0.99%
- Consumed propionate (cyanocobalamin 0.00037 μM): 1.7 g/L
- Propionate deposition (cyanocobalamin 0.00037 μM): 0.83%
- Cell dry weight (propionate 0+0+2+2+2+2 g/L d, cyanocobalamin 0 μM): 6.0 g/L
- Cell dry weight (propionate 0+0+2+2+2+2 g/L d, cyanocobalamin 0.00037 μM): 5.3 g/L
- propionic acid deposition rates in OCFAs (relatively low): < 3 % TFA
- OCFAs (total propionate fed batch 8 g/L): 0.33 g/L
